Where “and” joins values, the source holds several entries; their conditions need not be identical. Equal entries are not always repeated. Where two headings read alike, the source gives them in different places.
How the values were obtained:
HSP47 [1] = target: T1, HSP47 (Canis lupus familiaris, UniProt C7C419); conditions: gold-labeled HSP47 200 nM, foldon-CMP 100 nM (2:1); 30 fields of 1 μm2 counted
Method: Briefly, mixed protein solutions were adsorbed to 400 mesh carbon-coated copper grids and stained with 0.75% (w/v) uranyl formate. Specimens were examined in a Philips/FEICM 100 TWIN transmission electron microscope operated at 60 kV accelerating voltage. Images were recorded with a side-mounted Olympus Veleta camera with a resolution of 2048 × 2048 pixels (2k × 2K) and the ITEM acquisitions software.

HSP47 [2] = target: T1, HSP47; conditions: CMP coated 500 ng/well, HSP47 1:4 dilution series from 8 or 10 μM, anti-His-HRP/TMB read-out, four-parameter logistic fit, triplicates
Method: Purified collagen model peptides were coated onto a Nunc MaxiSorp (Thermo Fisher Scientific), 500 ng/well. Plates were washed after 1 h at RT with TBS-T 0.05% and free binding sites were blocked with 1% (w/v) BSA in TBS. […] Assays were either stopped with 10% H2SO4 and absorption measured at 450 nm or continuously monitored at 370 nm every 20 min for 1 h. In latter cases, timepoints showing the highest signal-to-noise ratio were used for analysis. […] Results were analyzed using Gen5 (BioTek) and Origin 2018.
The values shown for ELISA-style binding assays represent the average of triplicates. Data from affinity assays were analyzed using a four-parameter logistic fit function ([44]) in Origin 2018.

HSP47 [3] = target: T1, HSP47; conditions: normalized to water at 20 °C
Method: All samples were incubated for 30 min at RT and afterward centrifuged at 42.000 rpm in a ProteomeLab XL-A analytical ultracentrifuge (Beckman Coulter) equipped with a fluorescence detection system (AU-FDS; Aviv Biomedical Inc). In this setup 42.000 rpm translates to 117.552g at the top (r = 59.5 mm) and 142.248g at the bottom (r = 72.0 mm) of the sample cell. Samples were spun in standard 12 mm double-sector epon-filled centerpieces, covered with quartz windows. All measurements were performed in triplicates and key findings repeated three times.
The resulting sedimentation velocity profiles were analyzed using DCDT+ version 2.4.3 software by John Philo ([40]). The buffer density (ρ) and buffer viscosity (η) of the buffer used for data analysis were calculated with [sequence]

[4] = read-out: KD determined by curve fittings, Fig. 1D
[5] = higher molar ratios of HSP47 (up to 20 μM) to 1 μM ATTO488-labeled CMP
[6] = 1–5 μM HSP47 to 1 μM ATTO488-labeled CMP, 20 mM HEPES, 150 mM NaCl pH 7.5

T1 sequence (C7C419 entry or part of it): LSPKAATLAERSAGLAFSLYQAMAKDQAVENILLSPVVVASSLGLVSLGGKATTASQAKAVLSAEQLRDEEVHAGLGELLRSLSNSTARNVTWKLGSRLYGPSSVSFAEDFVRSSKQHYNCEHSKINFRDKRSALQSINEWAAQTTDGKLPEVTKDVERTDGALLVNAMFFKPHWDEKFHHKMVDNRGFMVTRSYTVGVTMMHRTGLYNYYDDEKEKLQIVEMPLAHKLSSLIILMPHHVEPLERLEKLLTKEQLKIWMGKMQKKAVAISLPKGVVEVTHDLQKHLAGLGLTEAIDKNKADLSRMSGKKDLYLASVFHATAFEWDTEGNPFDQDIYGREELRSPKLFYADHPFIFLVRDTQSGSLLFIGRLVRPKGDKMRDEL

Substance	Stoichiometry, 0 Au / foldon (no HSP47 bound) (HSP47 [1]) [%]	Stoichiometry, 1 Au / foldon (one HSP47 bound) (HSP47 [1]) [%]	Kd (HSP47 [2]; [4])	sedimentation coefficient of the HSP47:CMP complex (HSP47 [3]; [5])	sedimentation coefficient of the HSP47:CMP complex (HSP47 [3]; [6]) [S]	Stoichiometry, 2 Au / foldon (two HSP47 bound) (HSP47 [1]) [%]	Kd (HSP47 [2]; Fig. 1C) [µM]
GARGLP	52	46	0.0241 ± 0.0054 µM	even higher sedimentation rates			
GPRGFP	54	45	0.012 ± 0.0014 µM	stagnated	~4		
GPRGPP		29	0.0217 µM and ~0.021 µM	~5 S	~4	18	0.036 ± 0.003
